# Source: PubChem BioAssay (NCI)
#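 GI50 is the concentration that inhibits growth by half. TGI is the concentration that stops growth completely.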
# Experiments:
# Experiment in all cases: NCI anticancer screen, dose series, 384-well format
# SK-MEL-28 melanoma = system: SK-MEL-28 melanoma
# SF-295 CNS = system: SF-295 CNS
# OVCAR-4 ovarian = system: OVCAR-4 ovarian
# HOP-62 NSCLC = system: HOP-62 NSCLC
# HCC-2998 colon = system: HCC-2998 colon
# SK-OV-3 ovarian = system: SK-OV-3 ovarian
# HOP-92 NSCLC = system: HOP-92 NSCLC
# SNB-75 CNS = system: SNB-75 CNS
# MDA-MB-231 breast = system: MDA-MB-231 breast
# SF-539 CNS = system: SF-539 CNS
# K-562 leukemia = system: K-562 leukemia
# SW-620 colon = system: SW-620 colon
# MALME-3M melanoma = system: MALME-3M melanoma
structure (smiles),measurement,setting,value
CC(C)[C@](O)(c1ccc2cc(OC(F)F)c(OC(F)F)cc2c1)c1cn[nH]n1,GI50,SK-MEL-28 melanoma,17.2 µM
same,TGI,SK-MEL-28 melanoma,31.5 µM
same,GI50,SF-295 CNS,15 µM
same,TGI,SF-295 CNS,28.7 µM
same,GI50,OVCAR-4 ovarian,13.6 µM
same,TGI,OVCAR-4 ovarian,33.1 µM
same,GI50,HOP-62 NSCLC,16.3 µM
same,TGI,HOP-62 NSCLC,30 µM
same,GI50,HCC-2998 colon,15.4 µM
same,TGI,HCC-2998 colon,28.9 µM
same,GI50,SK-OV-3 ovarian,15.4 µM
same,TGI,SK-OV-3 ovarian,29.5 µM
same,GI50,HOP-92 NSCLC,16.7 µM
same,TGI,HOP-92 NSCLC,30.4 µM
same,GI50,SNB-75 CNS,14.9 µM
same,TGI,SNB-75 CNS,29.5 µM
same,GI50,MDA-MB-231 breast,13.2 µM
same,TGI,MDA-MB-231 breast,26.3 µM
same,GI50,SF-539 CNS,16.8 µM
same,TGI,SF-539 CNS,30.5 µM
same,GI50,K-562 leukemia,11 µM
same,TGI,K-562 leukemia,23.5 µM
same,GI50,SW-620 colon,15.2 µM
same,TGI,SW-620 colon,28.8 µM
same,GI50,MALME-3M melanoma,16.7 µM
same,TGI,MALME-3M melanoma,30.9 µM
